According to patent US20260092061A1, “COMPOUNDS FOR TARGETED PROTEIN DEGRADATION” (Amphista Therapeutics Limited, priority 2022, published 2026):

Molecular target: T1, BRD9 (Homo sapiens, UniProt Q9H8M2)
T1 sequence (Q9H8M2 1-597): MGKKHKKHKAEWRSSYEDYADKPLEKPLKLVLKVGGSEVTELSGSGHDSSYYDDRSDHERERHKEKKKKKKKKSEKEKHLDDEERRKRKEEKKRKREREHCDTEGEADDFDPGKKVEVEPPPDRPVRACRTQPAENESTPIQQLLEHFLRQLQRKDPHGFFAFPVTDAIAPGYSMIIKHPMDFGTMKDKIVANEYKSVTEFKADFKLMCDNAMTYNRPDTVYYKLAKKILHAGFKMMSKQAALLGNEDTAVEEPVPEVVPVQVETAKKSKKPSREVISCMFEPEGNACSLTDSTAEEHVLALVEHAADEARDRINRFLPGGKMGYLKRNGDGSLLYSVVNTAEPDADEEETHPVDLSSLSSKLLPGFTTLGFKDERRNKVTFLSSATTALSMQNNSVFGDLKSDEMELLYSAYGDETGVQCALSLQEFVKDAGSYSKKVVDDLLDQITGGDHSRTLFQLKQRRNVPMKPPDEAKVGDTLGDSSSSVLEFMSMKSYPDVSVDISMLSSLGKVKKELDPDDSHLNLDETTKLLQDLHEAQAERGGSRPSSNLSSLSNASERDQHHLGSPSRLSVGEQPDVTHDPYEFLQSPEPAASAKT
Assay: Degradation of BRD9 (IF), immunofluorescence in MV4-11 cells, 24 hours (Assay Protocol 2)
Format: cell-based
Parameters: A suspension of MV4-11 cells (ATCC CRL-9591) was prepared; host or cells: MV4-11
Conditions: BRD9 degradation; for DC50: Assay protocol 2, read-out: DC50; for Dmax: MV4-11, Assay protocol 2, read-out: Dmax
Method: Assay Protocol 2—Degradation of BRD9 (IF)
A suspension of MV4-11 cells (ATCC CRL-9591) was prepared in phenol red-free assay media (IMDM Thermo Scientific 21056023+10% FBS ATCC 302025) and cells were seeded at 20,000 cells per well (45 μL) in sterile black poly-d-lysine coated 384 well plates (Greiner 781948). Compounds were prepared at 1000× final concentration in DMSO, diluted 1:100 in assay media, and 5 μL compound was added to each well of the cell plate. Cells were incubated for 24 hours at 37° C. with 5% CO2. All the following incubations for immunofluorescence staining were at room temperature. 15 μL of 16% PFA was added to each well (3.7% final concentration) and the cells were fixed for 15 min then washed twice with DPBS. Cells were permeabilised with 0.1% Triton X-100 for 10 min, Triton X-100 was removed, then blocked with 1% BSA in DPBS for 1 hour. Cells were stained with 25 μL anti-BRD9 E4Q3F antibody (CST 48306) diluted 1:25600 in 1% BSA in DPBS for 2-3 hours. Wels were washed twice with DPBS then incubated with 25 μL of 1% BSA containing a 1:1000 dilution of Anti-rabbit Alexa Fluor™ 647 secondary antibody (Thero Scientific A21244) and 1 μg/mL Hoechst nuclear counter stain (Abcam ab228551) for 1 hour. Wells were washed twice with DPBS prior to imaging on a Perkin Elmer Operetta CLS with 10× air lens. Images were processed using Harmony High-Content Imaging and Analysis Software (Perkin Elmer) and the mean contrast ratio of Alexa Fluor™ 647 in central nuclei was used to quantify BRD9 protein levels. Data was further analysed using Dotmatics software and % BRD9 remaining was calculated by normalisation to average data from high and low control wells (cells treated with DMSO or 100 nM CFT-8634 respectively).

SMILES | DC50 [nM] | Dmax [%]
COc1cnc(F)c(/C=C(\C#N)C(=O)N2CCc3c(CN4CCN(Cc5c(OC)cc(-c6cn(C)c(=O)c(C)c6C)cc5OC)CC4)cccc3C2C)c1 (mixture of isomers) [Compound B75, (E/Z)-2-(5-((4-(2,6-dimethoxy-4-(1,4,5-trimethyl-6-oxo-1,6-dihydropyridin-3-yl)benzyl)piperazin-1-yl)methyl)-1-methyl-1,2,3,4-tetrahydroisoquinoline-2-carbonyl)-3-(2-fluoro-5-methoxypyridin-3-yl)acrylonitrile] | 1.25 to 10 | 40 to 70
COc1cc(-c2cn(C)c(=O)c(C)c2C)cc(OC)c1CN1CCN(Cc2cccc3c2CCN(C(=O)/C(C#N)=C/C2(C)CCC2)C3C)CC1 (mixture of isomers) [Compound B76, (E/Z)-2-(5-((4-(2,6-dimethoxy-4-(1,4,5-trimethyl-6-oxo-1,6-dihydropyridin-3-yl)benzyl)piperazin-1-yl)methyl)-1-methyl-1,2,3,4-tetrahydroisoquinoline-2-carbonyl)-3-(1-methylcyclobutyl)acrylonitrile] | 1.25 to 10 | 40 to 70
COc1cc(-c2cn(C)c(=O)c3ccsc23)cc(OC)c1CN1CCC(Oc2cccc3c2CCN(C(=O)/C(C#N)=C/c2cccc(Br)n2)C3C)CC1 (mixture of isomers) [Compound B77] | < 1.25 | 40 to 70
COc1cc(-c2cn(C)c(=O)c(C)c2C)cc(OC)c1C(=O)N1CCC(Oc2cccc(C3CCCN3C(=O)/C(C#N)=C/C(C)(C)C)c2)CC1 (mixture of isomers) [Compound B79, (E/Z)-2-(2-(3-((1-(2,6-dimethoxy-4-(1,4,5-trimethyl-1-oxo-1,6-dihydropyridin-3-yl)benzoyl)piperidin-4-yl)oxy)phenyl)pyrrolidine-1-carbonyl)-4,4-dimethylpent-2-enenitrile] | < 1.25 | 70 to 75
COc1cc(-c2cn(C)c(=O)c(C)c2C)cc(OC)c1C(=O)N1CCN(Cc2cccc3c2CCN(C(=O)/C(C#N)=C/c2cccc(Br)n2)C3C)CC1 (mixture of isomers) [Compound B80, (E/Z)-3-(6-bromopyridin-2-yl)-2-(5-((4-(2,6-dimethoxy-4-(1,4,5-trimethyl-6-oxo-1,6-dihydropyridin-3-yl)benzoyl)piperazin-1-yl)methyl)-1-methyl-1,2,3,4-tetrahydroisoquinoline-2-carbonyl)acrylonitrile] | < 1.25 | 40 to 70
COc1cc(-c2cc(C)c(=O)n(C)c2)cc(OC)c1CN1CCN(Cc2cccc(C3CCCN3C(=O)/C(C#N)=C/C(C)(C)C)c2)CC1 (mixture of isomers) [Compound B81] | < 1.25 | > 75
COc1cc(-c2cn(C)c(=O)c(C)c2C)cc(OC)c1CN1CCN(C(=O)CCCCOc2ccc(C3CCCN3C(=O)/C(C#N)=C/c3nccs3)cc2)CC1 (mixture of isomers) [Compound B82] | 25 to 1000 | 40 to 70

Results, then the molecule that gave them:

DC50 [nM] | Dmax [%] | SMILES
1.25 to 10 | > 75 | COc1cc(-c2cn(C)c(=O)c(C)c2C)cc(OC)c1CN1CCN(C(=O)COCCOc2ccc3c(c2)C(C)N(C(=O)/C(C#N)=C/c2nccs2)CC3)CC1 (mixture of isomers) [Compound B83, (E/Z)-2-(7-(2-(2-(4-(2,6-dimethoxy-4-(1,4,5-trimethyl-6-oxo-1,6-dihydropyridin-3-yl)benzyl)piperazin-1-yl)-2-oxoethoxy)ethoxy)-1-methyl-1,2,3,4-tetrahydroisoquinoline-2-carbonyl)-3-(thiazol-2-yl)acrylonitrile]
1.25 to 10 | > 75 | COc1cc(-c2cn(C)c(=O)c(C)c2C)cc(OC)c1CN1CCN(C(=O)CCCCOc2ccc3c(c2)C(C)N(C(=O)/C(C#N)=C/c2nccs2)CC3)CC1 (mixture of isomers) [Compound B84, (E/Z)-2-(7-((5-(4-(2,6-dimethoxy-4-(1,4,5-trimethyl-6-oxo-1,6-dihydropyridin-3-yl)benzyl)piperazin-1-yl)-5-oxopentyl)oxy)-1-methyl-1,2,3,4-tetrahydroisoquinoline-2-carbonyl)-3-(thiazol-2-yl)acrylonitrile]
10 to 25 | 40 to 70 | COc1cc(-c2cn(C)c(=O)c(C)c2C)cc(OC)c1CN1CCC(COc2cccc3c2CCN(C(=O)/C(C#N)=C/C(C)(C)C)C3C)CC1 (mixture of isomers) [Compound B86, (E/Z)-2-(5-((1-(2,6-dimethoxy-4-(1,4,5-trimethyl-6-oxo-1,6-dihydropyridin-3-yl)benzyl)piperidin-4-yl)methoxy)-1-methyl-1,2,3,4-tetrahydroisoquinoline-2-carbonyl)-4,4-dimethylpent-2-enenitrile]
10 to 25 | 40 to 70 | COc1cc(-c2cn(C)c(=O)c(C)c2C)cc(OC)c1C(=O)N1CCC(Oc2cccc3c2CCN(C(=O)/C(C#N)=C/c2cccc(Br)n2)C3C)CC1 (mixture of isomers) [Compound B88, (E/Z)-3-(6-bromopyridin-2-yl)-2-(5-((1-(2,6-dimethoxy-4-(1,4,5-trimethyl-6-oxo-1,6-dihydropyridin-3-yl)benzoyl)piperidin-4-yl)oxy)-1-methyl-1,2,3,4-tetrahydroisoquinoline-2-carbonyl)acrylonitrile]
< 1.25 | > 75 | COc1cc(-c2cn(C)c(=O)c(C)c2C)cc(OC)c1CN1CCN(Cc2cccc3c2CCN(C(=O)/C(C#N)=C/c2cnc(C)cn2)C3C)CC1 (mixture of isomers) [Compound B89, (E/Z)-2-(5-((4-(2,6-dimethoxy-4-(1,4,5-trimethyl-6-oxo-1,6-dihydropyridin-3-yl)benzyl)piperazin-1-yl)methyl)-1-methyl-1,2,3,4-tetrahydroisoquinoline-2-carbonyl)-3-(5-methylpyrazin-2-yl)acrylonitrile]
10 to 25 | 40 to 70 | COc1cc(-c2cn(C)c(=O)c(C)c2C)cc(OC)c1CN1CCN(Cc2cccc3c2CCN(C(=O)/C(C#N)=C/C2CCCC2)C3C)CC1 (mixture of isomers) [Compound B90, (E/Z)-3-cyclopentyl-2-(5-((4-(2,6-dimethoxy-4-(1,4,5-trimethyl-6-oxo-1,6-dihydropyridin-3-yl)benzyl)piperazin-1-yl)methyl)-1-methyl-1,2,3,4-tetrahydroisoquinoline-2-carbonyl)acrylonitrile]
1.25 to 10 | 40 to 70 | COc1cc(-c2cn(C)c(=O)c(C)c2C)cc(OC)c1CN1CCN(Cc2cccc3c2CCN(C(=O)/C(C#N)=C/c2cccc(F)c2F)C3C)CC1 (mixture of isomers) [Compound B91, (E/Z)-3-(2,3-difluorophenyl)-2-(5-((4-(2,6-dimethoxy-4-(1,4,5-trimethyl-6-oxo-1,6-dihydropyridin-3-yl)benzyl)piperazin-1-yl)methyl)-1-methyl-1,2,3,4-tetrahydroisoquinoline-2-carbonyl)acrylonitrile]
< 1.25 | 40 to 70 | COc1cc(/C=C(\C#N)C(=O)N2CCc3c(CN4CCN(Cc5c(OC)cc(-c6cn(C)c(=O)c(C)c6C)cc5OC)CC4)cccc3C2C)c(F)cn1 (mixture of isomers) [Compound B92, (E/Z)-2-(5-((4-(2,6-dimethoxy-4-(1,4,5-trimethyl-6-oxo-1,6-dihydropyridin-3-yl)benzyl)piperazin-1-yl)methyl)-1-methyl-1,2,3,4-tetrahydroisoquinoline-2-carbonyl)-3-(5-fluoro-2-methoxypyridin-4-yl)acrylonitrile]
1.25 to 10 | 40 to 70 | COc1ccc(F)c(/C=C(\C#N)C(=O)N2CCc3c(CN4CCN(Cc5c(OC)cc(-c6cn(C)c(=O)c(C)c6C)cc5OC)CC4)cccc3C2C)c1 (mixture of isomers) [Compound B93, (E/Z)-2-(5-((4-(2,6-dimethoxy-4-(1,4,5-trimethyl-6-oxo-1,6-dihydropyridin-3-yl)benzyl)piperazin-1-yl)methyl)-1-methyl-1,2,3,4-tetrahydroisoquinoline-2-carbonyl)-3-(2-fluoro-5-methoxyphenyl)acrylonitrile]
